# What was measured:
# human SP-A = biological target: T1, human SP-A (Homo sapiens, UniProt Q8IWL1+Q8IWL2); assay: Binding of LL-37 to SP-A by intrinsic tryptophan fluorescence titration
# T1 construct: Human SP-A was isolated from bronchoalveolar lavage fluid of patients with alveolar proteinosis; from tissue; host or cells: bronchoalveolar lavage fluid of patients with alveolar proteinosis
# Protocol: (§1) Fluorescence measurements were carried out in 5 x 5 quartz cuvettes using an SLM-Aminco AB-2 spectrofluorimeter equipped with a thermostated cuvette holder (± 0.1°C; Spectronic, Waltham, MA, USA). The slit widths were 4 nm for the excitation and emission beams. The tryptophan fluorescence emission spectrum of SP-A and rfhSP-A was recorded from 305 to 400 nm on excitation at 295 nm at 25°C in 5 mM Tris HCl buffer (pH 7.4), with or without 150 mM NaCl. Subsequently, the titration experiment was started by adding increasing amounts of LL-37 to the protein solution in the cuvette. The fluorescence intensity readings were corrected for the dilution caused by LL-37 addition.
# (§2) The change in the fluorescence of SP-A (or rfhSP-A) at the emission wavelength maximum was monitored as a function of LL-37 concentration, and the titration data were analyzed by nonlinear least squares fitting to the Hill equation, as previously reported ([24], [35], [36]):
# (§3) (1) ΔF/ΔFmax=[L]^nH/([L]^nH+KD)
# (§4) where ΔF is the change in fluorescence intensity at 337 nm relative to the intensity of free SP-A (for free rfhSP-A, the emission wavelength maximum was 342 nm); ΔFmax is the change in fluorescence intensity at saturating LL-37 concentrations; KD is the apparent equilibrium dissociation constant; [L] is the molar concentration of free LL-37; and nH is the Hill coefficient.
# [1] = biological target: T2, rfhSP-A (recombinant trimeric fragment of human SP-A) (Homo sapiens, UniProt Q8IWL2); assay: Binding of LL-37 to rfhSP-A by intrinsic tryptophan fluorescence titration
# T2 construct: including the globular carbohydrate recognition domain (CRD), neck, and 8 x Gly-Xaa-Yaa repeats of the collagen stalk; His6 (N, cleaved yes); NT* solubility tag (spider silk) with coxsackievirus 3C protease site (N, cleaved yes); made in house; host or cells: Escherichia coli BL21 (DE3)
# T2 sequence (Q8IWL2 77-248 limits assumed): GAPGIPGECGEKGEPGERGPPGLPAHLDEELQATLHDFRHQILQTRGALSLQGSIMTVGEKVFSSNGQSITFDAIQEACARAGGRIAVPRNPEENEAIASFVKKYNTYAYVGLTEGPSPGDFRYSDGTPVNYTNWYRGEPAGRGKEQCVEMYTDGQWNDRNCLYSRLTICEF
# Protocol: as §1, §2, §3, §4
# A549 cells [2] = type: cell-based, human; conditions: LL-37 2.5 µM, SP-A 0.15 µM, rfhSP-A 0.88 µM, 30 min 37°C; complexes vs LL-37 alone p < 0.001
# Protocol: (§5) Human cell lines of alveolar basal epithelium A549 (ATTC® CCL-185TM) and monocytes U937 (ATTC® CRL-1593.2TM) were incubated in RPMI 1640 supplemented with 10% (v/v) heat-inactivated fetal bovine serum (FBS), antibiotics (100 U/ml penicillin and 100 μg/ml streptomycin), and 2 mM L-glutamine (BioWhittacker).
# (§6) Incorporation of Sytox Green in A549 cells was analyzed by confocal microscopy and flow cytometry analysis.
# For confocal microscopy analysis, cells were seeded to a density of 30,000 cells per well in a 24-well tissue culture plate for 18 h in RPMI 1640 tissue culture medium supplemented with 100 U/ml penicillin, 100 μg/ml streptomycin, 2 mM L-glutamine, and with 5% FBS. The following day, Sytox Green (1 µM, final concentration) was added to the wells 10 minutes before the addition of 2.5 µM (11.25 µg/ml) LL-37 and/or 0.15 µM (100 µg/ml) SP-A or 0.88 µM (50 µg/ml) rfhSP-A for an additional 30 minutes. At the end of the incubation, fluorescence and differential interference contrast micrographs were taken under an Olympus FV1200 confocal system. Quantification of permeabilized cells (Sytox Green+) per cell number was performed using Image J software on each of 12 micrographs per treatment and experiment.
# A549 cells [3] = type: cell-based, human; conditions: LL-37 2.5 µM, SP-A 0.15 µM, rfhSP-A 0.88 µM, 15-60 min 37°C; complexes vs LL-37 alone p < 0.001
# Protocol: as §5, §6
# (§7) For flow cytometry analysis, A549 cells were grown in RPMI 1640 medium supplemented with antibiotics, 2 mM L-glutamine, and 10% FBS. […] A-438079 stock was resuspended in DMSO to a final concentration of 30 mM and aliquots were stored at 4°C. Cell fluorescence was analyzed after 15, 30 and 60 minutes in a Becton-Dickinson FACS Calibur cytometer, using Cell Quest software.
# A549 cells [4] = assay: Propidium iodide uptake, A549; type: cell-based, human; conditions: LL-37 2.5 µM, SP-A 0.15 µM, rfhSP-A 0.88 µM, 15-60 min, 37°C, flow cytometry
# Protocol: as §5
# (§8) The incorporation of PI in A549 and U937 cell lines was analyzed by flow cytometry. Cells were cultured 18 h in RPMI 1640 medium supplemented with antibiotics, 2 mM L-glutamine, and 10% FBS. Then, cells were harvested and incubated in PBS with 10 µg/ml PI in the presence or absence of 2.5 µM LL-37, 0.15 µM SP-A or 0.88 µM rfhSP-A, and combinations thereof. A549 were incubated at 500,000 cells/ml density and U937 at 1,000,000 cells/ml. PI incorporation was measured after 15, 30, 45 and 60 minutes by flow cytometry. In some experiments, cells were pre-treated with 1 or 10 µM A-438079 or vehicle (DMSO).
# U937 cells = assay: Propidium iodide uptake, U937; type: cell-based, human; conditions: LL-37 2.5 µM, SP-A 0.15 µM, rfhSP-A 0.88 µM, 15-60 min, 37°C, flow cytometry
# Protocol: as §5, §8
# [5] = tested on: P2X7 channels, A549 pneumocytes; type: cell-based, human; conditions: A-438079 10 µM, 15 min pre-treatment; LL-37 2.5 µM, SP-A 0.15 µM, rfhSP-A 0.88 µM, 1 hour
# Protocol: as §7, §8
# [6] = tested on: P2X7 channels, U937 monocytes; type: cell-based, human; conditions: A-438079 10 µM, 15 min pre-treatment; LL-37 2.5 µM, SP-A 0.15 µM, rfhSP-A 0.88 µM, 1 hour
# Protocol: as §7, §8
# T1 sequence (Q8IWL2 21-248): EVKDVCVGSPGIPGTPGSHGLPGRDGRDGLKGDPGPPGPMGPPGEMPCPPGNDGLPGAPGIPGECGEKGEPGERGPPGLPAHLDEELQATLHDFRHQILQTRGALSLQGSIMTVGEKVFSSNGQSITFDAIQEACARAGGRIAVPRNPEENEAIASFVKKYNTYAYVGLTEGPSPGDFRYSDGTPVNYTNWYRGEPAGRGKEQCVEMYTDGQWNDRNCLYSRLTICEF
# T1 sequence (Q8IWL1 21-248): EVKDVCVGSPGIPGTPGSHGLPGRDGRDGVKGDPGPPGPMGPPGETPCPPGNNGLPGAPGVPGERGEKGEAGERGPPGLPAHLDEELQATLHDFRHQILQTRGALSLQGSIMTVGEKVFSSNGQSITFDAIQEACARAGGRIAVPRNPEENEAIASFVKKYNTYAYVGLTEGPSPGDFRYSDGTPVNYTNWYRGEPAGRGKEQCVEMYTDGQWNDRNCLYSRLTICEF
smiles,measurement,setting,value
CC[C@H](C)[C@H](NC(=O)[C@H](CCCCN)NC(=O)[C@H](CCC(=O)O)NC(=O)[C@H](CCCCN)NC(=O)[C@H](CO)NC(=O)[C@H](CCCCN)NC(=O)[C@H](CCCNC(=N)N)NC(=O)[C@H](Cc1ccccc1)NC(=O)[C@H](Cc1ccccc1)NC(=O)[C@H](CC(=O)O)NC(=O)CNC(=O)[C@H](CC(C)C)NC(=O)[C@@H](N)CC(C)C)C(=O)NCC(=O)N[C@@H](CCCCN)C(=O)N[C@@H](CCC(=O)O)C(=O)N[C@@H](Cc1ccccc1)C(=O)N[C@@H](CCCCN)C(=O)N[C@@H](CCCNC(=N)N)C(=O)N[C@H](C(=O)N[C@H](C(=O)N[C@@H](CCC(N)=O)C(=O)N[C@@H](CCCNC(=N)N)C(=O)N[C@H](C(=O)N[C@@H](CCCCN)C(=O)N[C@@H](CC(=O)O)C(=O)N[C@@H](Cc1ccccc1)C(=O)N[C@@H](CC(C)C)C(=O)N[C@@H](CCCNC(=N)N)C(=O)N[C@@H](CC(N)=O)C(=O)N[C@@H](CC(C)C)C(=O)N[C@H](C(=O)N1CCC[C@H]1C(=O)N[C@@H](CCCNC(=N)N)C(=O)N[C@H](C(=O)N[C@@H](CCC(=O)O)C(=O)N[C@@H](CO)C(=O)O)[C@@H](C)O)C(C)C)[C@@H](C)CC)C(C)C)[C@@H](C)CC [LL-37],Kd,human SP-A,0.45 ± 0.01 nM
same,Kd,[1],1.2 ± 0.7 nM
same,"Sytox Green incorporation, A549, confocal",A549 cells [2],induced Sytox Green incorporation in human pneumocytes
same,"Sytox Green incorporation, A549, flow cytometry",A549 cells [3],induced Sytox Green incorporation in human pneumocytes
same,"PI uptake, A549 pneumocytes",A549 cells [4],induced significant PI incorporation into human cells as a function of time
same,"PI uptake, U937 monocytes",U937 cells,induced significant PI incorporation into human cells as a function of time
same,"LL-37-induced dye uptake with / without P2X7 inhibitor, A549",[5],partially mediated by activation of P2X7 channels
same,"LL-37-induced dye uptake with / without P2X7 inhibitor, U937",[6],partially mediated by activation of P2X7 channels

# From publication PMC9464622, “The collectin SP-A and its trimeric recombinant fragment protect alveolar epithelial cells from the cytotoxic and proinflammatory effects of human cathelicidin in vitro” (Frontiers in Immunology, 2022)
